Assay results taken from ChEMBL document CHEMBL1201862, “PubChem BioAssay data set” (2004).
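48-hour exposure; five concentrations; linearly interpolated endpoints. At the GI50, growth is halved.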 The source made the active and inactive calls. Rule as the data show it: active = GI50 up to about 1.1 µM and inactive = higher.

Assays:
Test in all cases: NCI-60 cell line screen, 48 h
786-0 = test system: 786-0
A549 = test system: A549
ACHN = test system: ACHN
BT-549 = test system: BT-549
CAKI-1 = test system: CAKI-1
CCRF-CEM = test system: CCRF-CEM
COLO 205 = test system: COLO 205
DU-145 = test system: DU-145
EKVX = test system: EKVX
HCC 2998 = test system: HCC 2998
HCT-116 = test system: HCT-116
HCT-15 = test system: HCT-15
HOP-62 = test system: HOP-62
HT-29 = test system: HT-29
Hs-578T = test system: Hs-578T
IGROV-1 = test system: IGROV-1
K562 = test system: K562
KM12 = test system: KM12
M14 = test system: M14
MCF7 = test system: MCF7
MDA-MB-231 = test system: MDA-MB-231
MDA-MB-435 = test system: MDA-MB-435
MDA-N = test system: MDA-N
MOLT-4 = test system: MOLT-4
Malme-3M = test system: Malme-3M
NCI-H226 = test system: NCI-H226
NCI-H23 = test system: NCI-H23
NCI-H460 = test system: NCI-H460
NCI/ADR-RES = test system: NCI/ADR-RES
OVCAR-3 = test system: OVCAR-3
OVCAR-4 = test system: OVCAR-4
OVCAR-5 = test system: OVCAR-5
OVCAR-8 = test system: OVCAR-8
PC-3 = test system: PC-3
RPMI-8226 = test system: RPMI-8226
RXF 393 = test system: RXF 393
SF-268 = test system: SF-268
SF-295 = test system: SF-295
SK-MEL-28 = test system: SK-MEL-28
SK-MEL-2 = test system: SK-MEL-2
SK-MEL-5 = test system: SK-MEL-5
SK-OV-3 = test system: SK-OV-3
SN12C = test system: SN12C
SNB-19 = test system: SNB-19
SNB-75 = test system: SNB-75
SW-620 = test system: SW-620
T47D = test system: T47D
TK-10 = test system: TK-10
U-251 = test system: U-251
UACC-257 = test system: UACC-257
UACC-62 = test system: UACC-62
UO-31 = test system: UO-31
A498 = test system: A498
HOP-92 = test system: HOP-92
LOX IMVI = test system: LOX IMVI
NCI-H522 = test system: NCI-H522

NC(=O)C1N=NSC1NC(=O)c1ccc([N+](=O)[O-])cc1 (stereo not drawn)
GI50 (786-0): > 100 µM (inactive) | GI50 (A549): 27 µM (inactive) | GI50 (ACHN): 59.4 µM (inactive) | GI50 (BT-549): 48.2 µM (inactive) | GI50 (CAKI-1): 63.5 µM (inactive) | GI50 (CCRF-CEM): 43.5 µM (inactive) | GI50 (COLO 205): 44.5 µM (inactive) | GI50 (DU-145): 78.5 µM (inactive) | GI50 (EKVX): 30 µM (inactive) | GI50 (HCC 2998): 37.6 µM (inactive) | GI50 (HCT-116): 47.5 µM (inactive) | GI50 (HCT-15): 53.8 µM | GI50 (HOP-62): > 100 µM (inactive) | GI50 (HT-29): 36.9 µM (inactive) | GI50 (Hs-578T): 75 µM (inactive) | GI50 (IGROV-1): 22.4 µM (inactive) | GI50 (K562): 62.7 µM (inactive) | GI50 (KM12): 49.9 µM (inactive) | GI50 (M14): 56.4 µM (inactive) | GI50 (MCF7): 43.5 µM (inactive) | GI50 (MDA-MB-231): 52.2 µM (inactive) | GI50 (MDA-MB-435): 46.5 µM (inactive) | GI50 (MDA-N): 67.3 µM (inactive) | GI50 (MOLT-4): 49.2 µM (inactive) | GI50 (Malme-3M): 60.3 µM (inactive) | GI50 (NCI-H226): 54.8 µM (inactive) | GI50 (NCI-H23): 38.7 µM (inactive) | GI50 (NCI-H460): 34.4 µM (inactive) | GI50 (NCI/ADR-RES): 36.6 µM (inactive) | GI50 (OVCAR-3): 30.4 µM (inactive) | GI50 (OVCAR-4): 43.3 µM (inactive) | GI50 (OVCAR-5): > 100 µM (inactive) | GI50 (OVCAR-8): 53.6 µM (inactive) | GI50 (PC-3): 26.6 µM (inactive) | GI50 (RPMI-8226): 26.4 µM (inactive) | GI50 (RXF 393): 43.5 µM (inactive) | GI50 (SF-268): 54.7 µM (inactive) | GI50 (SF-295): 32.2 µM (inactive) | GI50 (SK-MEL-28): > 100 µM (inactive) | GI50 (SK-MEL-2): 13.5 µM (inactive) | GI50 (SK-MEL-5): 22 µM (inactive) | GI50 (SK-OV-3): 58.9 µM (inactive) | GI50 (SN12C): 47.5 µM (inactive) | GI50 (SNB-19): 50.6 µM (inactive) | GI50 (SNB-75): 67.3 µM (inactive) | GI50 (SW-620): 50.6 µM (inactive) | GI50 (T47D): 26.3 µM (inactive) | GI50 (TK-10): 54.8 µM (inactive) | GI50 (U-251): 36.6 µM (inactive) | GI50 (UACC-257): > 100 µM (inactive) | GI50 (UACC-62): 49.4 µM (inactive) | GI50 (UO-31): 40.6 µM (inactive)

Cn1c(=O)c2c(nc(Cc3ccccc3)n2CC(=O)O)n(C)c1=O
GI50 (786-0): > 100 µM (inactive) | GI50 (A498): > 100 µM (inactive) | GI50 (A549): > 100 µM (inactive) | GI50 (ACHN): > 100 µM (inactive) | GI50 (BT-549): > 100 µM (inactive) | GI50 (CAKI-1): > 100 µM (inactive) | GI50 (CCRF-CEM): > 100 µM (inactive) | GI50 (DU-145): > 100 µM (inactive) | GI50 (EKVX): > 100 µM (inactive) | GI50 (HCC 2998): > 100 µM (inactive) | GI50 (HCT-116): > 100 µM (inactive) | GI50 (HCT-15): > 100 µM | GI50 (HOP-62): > 100 µM (inactive) | GI50 (HOP-92): > 100 µM (inactive) | GI50 (HT-29): > 100 µM (inactive) | GI50 (Hs-578T): > 100 µM (inactive) | GI50 (IGROV-1): > 100 µM (inactive) | GI50 (KM12): > 100 µM (inactive) | GI50 (LOX IMVI): > 100 µM (inactive) | GI50 (M14): > 100 µM (inactive) | GI50 (MDA-MB-231): > 100 µM (inactive) | GI50 (MDA-MB-435): > 100 µM (inactive) | GI50 (MDA-N): > 100 µM (inactive) | GI50 (MOLT-4): > 100 µM (inactive) | GI50 (Malme-3M): > 100 µM (inactive) | GI50 (NCI-H226): > 100 µM (inactive) | GI50 (NCI-H23): > 100 µM (inactive) | GI50 (NCI-H460): > 100 µM (inactive) | GI50 (NCI-H522): > 100 µM (inactive) | GI50 (NCI/ADR-RES): > 100 µM (inactive) | GI50 (OVCAR-3): > 100 µM (inactive) | GI50 (OVCAR-4): > 100 µM (inactive) | GI50 (OVCAR-5): > 100 µM (inactive) | GI50 (OVCAR-8): > 100 µM (inactive) | GI50 (PC-3): > 100 µM (inactive) | GI50 (RXF 393): > 100 µM (inactive) | GI50 (SF-268): > 100 µM (inactive) | GI50 (SF-295): > 100 µM (inactive) | GI50 (SK-MEL-28): > 100 µM (inactive) | GI50 (SK-MEL-2): > 100 µM (inactive) | GI50 (SK-MEL-5): > 100 µM (inactive) | GI50 (SN12C): > 100 µM (inactive) | GI50 (SNB-19): > 100 µM (inactive) | GI50 (SNB-75): > 100 µM (inactive) | GI50 (SW-620): > 100 µM (inactive) | GI50 (T47D): > 100 µM (inactive) | GI50 (TK-10): > 100 µM (inactive) | GI50 (U-251): > 100 µM (inactive) | GI50 (UACC-257): > 100 µM (inactive) | GI50 (UACC-62): > 100 µM (inactive) | GI50 (UO-31): > 100 µM (inactive)
